Reference: PMC9623576, “Semisynthesis and Evaluation of Anti-Inflammatory Activity of the Cassane-Type Diterpenoid Taepeenin F and of Some Synthetic Intermediates” (Journal of Natural Products, 2022)
Entries after “also recorded” stand apart in the source; their conditions may differ.

How the values were obtained:
B16-F10 cells [1] = assay: B16-F10 cell-cycle arrest and distribution, PI flow cytometry; type: cell-based, murine; conditions: B16-F10, 72 h
Description: The effects of the compounds 16 and 21 on the B16-F10 cell cycle were investigated using flow cytometry through propidium iodide staining. With this assay, we can determine a possible cytostatic effect related to the cytotoxic response and also measure DNA ploidy as well as alterations of cell-cycle profiles.[32]
The method used to quantify the amount of DNA in the different phases of the cell cycle (G0/G1, S, and G2/M) was performed by flow cytometry after propidium iodide staining (PI).[37] […] After treatment, the cells were washed twice with PBS, trypsinized, and resuspended in 1× TBS (10 mM Tris and 150 mM NaCl). After that, Vindelov buffer (100 mM Tris, 100 mM NaCl, 10 mg/mL Rnase, and 1 mg/mL PI, at pH 8) was added. Cells were stored on ice and, just before measurement, were stained with 20 μL of 1 mg/mL PI solution. Approximately, 10 × 10^3 cells were analyzed in each experiment. The experiments were performed three times with two replicates per assay. Finally, samples were analyzed using a flow cytometer, and the number of cells in each stage of the cell cycle was estimated by fluorescence-associated cell sorting (FACS) at 488 nm in an Epics XL flow cytometer (Coulter Corporation, Hialeah, FL, USA).

B16-F10 cells [2] = assay: Mitochondrial membrane potential, Rh123/PI flow cytometry; type: cell-based, murine; conditions: B16-F10, 72 h; for changes in mitochondrial membrane potential (MMP): IC50 and IC80 concentrations, Rh123/IP
Text: In addition, the loss of part of MMP can be related to the secondary activation of the intrinsic apoptotic pathway as a final event in the extrinsic apoptosis mechanism. Further molecular studies will be necessary to confirm these conclusions.
The electrochemical gradient across the mitochondrial membrane was investigated by analytical flow cytometry, using dihydrorhodamine (DHR). DHR is oxidized in contact with living cells, forming a highly fluorescent product called rhodamine (Rh 123). The emitted fluorescence can be monitored by fluorescence spectroscopy using excitation and emission wavelengths of 500 and 536 nm, respectively.[37]−[39] […] After treatment, the culture medium was renewed by adding fresh medium with DHR to a final concentration of […]. Cells were incubated for 1 h at 37 °C in an atmosphere of 5% CO2 and 95% humidity and subsequently washed and resuspended in PBS with 5 μg/mL of PI. The fluorescence intensity was measured using a FACScan flow cytometer (fluorescence-activated cell sorter). The experiments were performed three times with two replicates per assay.

[3] = tested on: RAW 264.7 monocyte/macrophage murine cells; assay: MTT growth inhibition on RAW 264.7 cells; type: cell-based; conditions: Mus musculus, RAW264.7, RAW 264.7, MTT; for IC20: 20% growth inhibition; for IC80: 80% growth inhibition
Description: A stock solution was frozen and stored at […]. Before the experiments, this solution was diluted in cell-culture medium to the adequate concentrations for each experiment. […] For nitrite assay, subcytotoxic concentrations (3/4IC50, 1/2IC50, and 1/4IC50), were used to ensure that the NO inhibitory potential was not due to a possible cytotoxic effect. The concentrations of 3/4IC50, 1/2IC50, and 1/4IC50 were used for the cell-cycle analysis. All experiments were measured and compared with control (untreated cells after 24, 48, or 72 h of treatment.)
In all experiments, monolayer cells were grown to 80–90% confluence, in sterile cell culture flasks. All cell lines used were purchased from the cell bank of the University of Granada, Spain.
The cytotoxicity assay was performed by the MTT (3-(4,5-dimethylthiazol-2-yl)-2,5-diphenyltetrazolium bromide) method.[21] […] All tested compounds were prepared in fresh growth medium. After 24 h, an additional 100 μL of medium with the corresponding concentrations of products (only medium in the control wells) was added to the corresponding wells, at various final concentrations (0–100 μg/mL). […] After 1.5 h of incubation, formazan was resuspended in 100 μL of DMSO, and each concentration was tested in triplicate.
Cytotoxicity experimental data were fitted to a sigmoidal function (y = ymax/(x/a)^−b) by nonlinear regression. […] Similar analyses were performed to obtain the IC50 of NO production. All data shown here are representative of at least two independent experiments performed in triplicate. All quantitative data were summarized as the mean ± standard deviation (SD).

Compound | cells in the G0/G1 phase (B16-F10 cells [1]; IC50 concentration) | cells in the S phase (B16-F10 cells [1]; IC50 concentration) | decrease of S phase cells compared to untreated control cells (B16-F10 cells [1]; IC50 concentration) | increase of G0/G1 cells over untreated control cells (B16-F10 cells [1]; IC50 concentration) | cells in the G0/G1 phase (B16-F10 cells [1]; IC80 concentration) | cells in the S phase (B16-F10 cells [1]; IC80 concentration) | decrease of S phase cells compared to untreated control cells (B16-F10 cells [1]; IC80 concentration) | increase of G0/G1 cells over untreated control cells (B16-F10 cells [1]; IC80 concentration) | changes in mitochondrial membrane potential (MMP) (B16-F10 cells [2]) | population of Rh123 negative cells versus control untreated cells (B16-F10 cells [2]; IC80 concentration) | IC50 [3] | IC20 [3] | IC80 [3]
COC(=O)[C@]1(C)CCC[C@]2(C)c3cc(O)c(C=O)c(C)c3CC[C@@H]12 [Compound 21, (1R,4aS,10aR)-Methyl 7-formyl-6-hydroxy-1,4a,8-trimethyl-1,2,3,4,4a,9,10,10a-octahydrophenanthrene-1-carboxylate] | 71.87% | 27.95% | 11.26% | 13.75% | 70.55% | 29.45% | 9.76% | 12.43% | partial loss of the MMP | higher | 21.1 ± 0.96 µM | 17.8 ± 1.34 µM | 25.3 ± 0.58 µM
COC(=O)[C@]1(C)CCC[C@@]2(C)[C@H]1CC=C1C(C)=C(C(C)C)C(=O)C[C@@H]12 [Compound 16, (1R,4aR,10aR)-Methyl 7-isopropyl-1,4a,8-trimethyl-6-oxo-1,2,3,4,4a,4b,5,6,10,10a-decahydrophenanthrene-1-carboxylate] | – | – | – | – | 76.36% | 22.42% | 16.79% | 18.24% | did not cause any loss of the mitochondrial membrane potential; also recorded: did not produce any changes in MMP | – | 33.1 ± 3.62 µM | 30.1 ± 0.49 µM | 33.81 ± 0.08 µM
